In patent EP0463492A1, “2,6-Diarylpyridin derivatives” (BAYER AG, priority 1990, dated 1992):

System: Testpflanzen
Assay: Post-emergence test (greenhouse)
Type: in vivo
Conditions: post-emergence spray on test plants 5 - 15 cm high, 1000 l Wasser/ha; rated after three weeks as % Schädigung versus untreated control (0 % = keine Wirkung, 100 % = totale Vernichtung); application rates and plant species not given
Source text: Post-emergence-Test (Gewächshaus) • Lösungsmittel: 5 Gewichtsteile Aceton • Emulgator: 1 Gewichtsteil Alkylarylpolyglykolether
Zur Herstellung einer zweckmäßigen Wirkstoffzubereitung vermischt man 1 Gewichtsteil Wirkstoff mit den angegebenen Menge Lösungsmittel, gibt die angegebene Menge Emulgator zu und verdünnt das Konzentrat mit Wasser auf die gewünschte Konzentration.
Mit der Wirkstoffzubereitung spritzt man Testpflanzen, welche eine Höhe von 5 - 15 cm haben so, daß die jeweils gewünschten Wirkstoffmengen pro Flächeneinheit ausgebracht werden. Die Konzentration der Spritzbrühe wird so gewählt, daß in 1000 I Wasser/ha die jeweils gewünschten Wirkstoffmengen ausgebracht werden. Nach drei Wochen wird der Schädigungsgrad der Pflanzen bonitiert in % Schädigung im Vergleich zur Entwicklung der unbehandelten Kontrolle.
Es bedeuten: • 0 % = keine Wirkung (wie unbehandelte Kontrolle) • 100 % = totale Vernichtung

CCOc1cc(-c2ccccc2)nc(-c2cccc(CC)c2)c1 [Beispiel 2, 4-Ethoxy-2-(3-ethylphenyl)-6-phenyl-pyridin]
Wirksamkeit und Nutzpflanzenselektivität: sehr gute Wirksamkeit und Nutzpflanzenselektivität
